Experimental data taken from patent US20040009485A1, “Cellular arrays for the identification of altered gene expression” (priority 2002, published 2004).

Test system: LuxArray 1.04 E. coli strains (luxCDABE gene fusions)
Assay: LuxArray 1.04 limonene stress of the reporter array in liquid culture
Assay type: cell-based
Conditions: for number of gene fusions upregulated by 2 fold or more / upregulation of gene fusion: 80% saturated limonene in LB; for number of gene fusions upregulated by 2 fold or more: LuxArray 1.04 (849 fusions)
Description: Microplates from −80° C. containing the LuxArray 1.04 E. coli strains were thawed and used to inoculate 100 μl LB medium supplemented with 100 μg/ml ampicillin in Costar#3595 flat bottomed 96-well microplates. Following overnight growth at 37° C., the plates were visually examined and any wells with little or no turbidity were recorded. Then these cultures were diluted by transfer of 15 μl to 135 μl LB medium in Costar #3595, flat bottom 96-well microplates and were moderately swirl shaken on an IKA Schuttler MTS 4 shaker at setting 400 for two hrs at 37° C. in a humidified box. Twenty μl of each these actively growing cultures were transferred to the corresponding well in sets of three microplates, one containing 80 μl of LB medium, another containing 80 μl of LB medium saturated with limonene at room temperature, and the third containing 40 μl of LB medium saturated with limonene and 40 μl of LB medium. An initial (zero time) reading was taken using an MLX microplate luminometer (Dynex) pre-warmed to 37° C. Then the plates were placed at 37° C. without shaking. Additional bioluminescent measurements were taken at 45, 90, and 135 minutes. To limit the number of microplates handled each day, LuxArray 1.04 microplates 1 to 5, microplates 6 to 10, microplates 11 to 15, and microplates […] were used on each of four different days.
The data were normalized to correct for growth-inhibition caused by limonene on the basis of each individual day that data was collected. The bioluminescence (RLU) of each individual culture for each day of experimentation under each of the three conditions, were added to determine the daily array total RLU. These were used to find a daily normalization factor (DNF) as follows:
DNF=Daily total array signal(time zero, LB control)/Daily total array signal(time x, condition y)
Each measurement from the corresponding day, time point, and condition was multiplied by DNF to yield a normalized signal. The data from wells that were scored to have little or no growth were not used in further analysis. The normalized data were analyzed with GeneSpring (Silicon Genetics) software, which averaged the signal from each of the duplicate cultures for each reporter gene fusion.
Thus, patterns of gene expression from the 80% saturated limonene in LB medium were further examined. […] These lists were examined and gene fusions with very low normalized RLU values (<0.012 RLU) at all conditions were eliminated. […] The designation of “>2X” is given for upregulation while “*” is listed if the expression was less than 2 fold increased. At 45 minutes, the expression of fourteen gene fusions was increased; none of these was increased 3 fold or higher. At 90 minutes, 37 gene fusions were induced; these included all but one of the gene fusions observed at 45 minutes. […] These were fusions of the luxCDABE reporter to the promoter regions of uhpT (3.8×), nirB (3.7×) and narK (3.6×). At 135 minutes, 39 gene fusions were induced, which included 13 fusions not observed at 45 or 90 minutes.

Structure (SMILES): C=C(C)[C@H]1CC=C(C)CC1 [limonene]
- upregulation of gene expression overall (40% saturated limonene in LB medium): little to no upregulation of gene expression
- number of gene fusions upregulated by 2 fold or more (45 minutes): fourteen
- number of gene fusions upregulated by 2 fold or more (90 minutes): 37 gene fusions
- number of gene fusions upregulated by 2 fold or more (135 minutes): 39 gene fusions
- upregulation of gene fusion (b0005 fusion, 45 minutes): * (“*” is listed if the expression was less than 2 fold increased)
- upregulation of gene fusion (b0005 fusion, 90 minutes): * (“*” is listed if the expression was less than 2 fold increased)
- upregulation of gene fusion (b0005 fusion, 135 minutes): >2X (The designation of “>2X” is given for upregulation)
- upregulation of gene fusion (b0123 (yacK) fusion, 45 minutes): * (“*” is listed if the expression was less than 2 fold increased)
- upregulation of gene fusion (b0314 (betT) fusion, 45 minutes): * (“*” is listed if the expression was less than 2 fold increased)
- upregulation of gene fusion (b0314 (betT) fusion, 90 minutes): >2X (The designation of “>2X” is given for upregulation)
- upregulation of gene fusion (b0314 (betT) fusion, 135 minutes): >2X (The designation of “>2X” is given for upregulation)
- upregulation of gene fusion (b0417 fusion, 45 minutes): * (“*” is listed if the expression was less than 2 fold increased)
- upregulation of gene fusion (b0417 fusion, 90 minutes): >2X (The designation of “>2X” is given for upregulation)
- upregulation of gene fusion (b0417 fusion, 135 minutes): >2X (The designation of “>2X” is given for upregulation)
- upregulation of gene fusion (b0422 (xseB) fusion, 45 minutes): * (“*” is listed if the expression was less than 2 fold increased)
- upregulation of gene fusion (b0422 (xseB) fusion, 90 minutes): >2X (The designation of “>2X” is given for upregulation)
- upregulation of gene fusion (b0422 (xseB) fusion, 135 minutes): * (“*” is listed if the expression was less than 2 fold increased)
- upregulation of gene fusion (b0572 fusion, 45 minutes): * (“*” is listed if the expression was less than 2 fold increased)
- upregulation of gene fusion (b0572 fusion, 90 minutes): >2X (The designation of “>2X” is given for upregulation)
- upregulation of gene fusion (b0572 fusion, 135 minutes): >2X (The designation of “>2X” is given for upregulation)
- upregulation of gene fusion (b0593 (entC) fusion, 45 minutes): * (“*” is listed if the expression was less than 2 fold increased)
- upregulation of gene fusion (b0593 (entC) fusion, 90 minutes): >2X (The designation of “>2X” is given for upregulation)
- upregulation of gene fusion (b0593 (entC) fusion, 135 minutes): >2X (The designation of “>2X” is given for upregulation)
- upregulation of gene fusion (b0839 (dacC) fusion, 45 minutes): * (“*” is listed if the expression was less than 2 fold increased)
- upregulation of gene fusion (b0839 (dacC) fusion, 90 minutes): >2X (The designation of “>2X” is given for upregulation)
- upregulation of gene fusion (b0839 (dacC) fusion, 135 minutes): >2X (The designation of “>2X” is given for upregulation)
- upregulation of gene fusion (b1188 (ycgB) fusion, 45 minutes): * (“*” is listed if the expression was less than 2 fold increased)
- upregulation of gene fusion (b1188 (ycgB) fusion, 90 minutes): >2X (The designation of “>2X” is given for upregulation)
- upregulation of gene fusion (b1188 (ycgB) fusion, 135 minutes): * (“*” is listed if the expression was less than 2 fold increased)
- upregulation of gene fusion (b1223 (narK) fusion, 45 minutes): * (“*” is listed if the expression was less than 2 fold increased)
- upregulation of gene fusion (b1223 (narK) fusion, 90 minutes): >2X (The designation of “>2X” is given for upregulation)
- upregulation of gene fusion (b1223 (narK) fusion, 135 minutes): >2X (The designation of “>2X” is given for upregulation)
- upregulation of gene fusion (b1676 (pykF) fusion, 45 minutes): >2X (The designation of “>2X” is given for upregulation)
- upregulation of gene fusion (b1676 (pykF) fusion, 90 minutes): >2X (The designation of “>2X” is given for upregulation)
- upregulation of gene fusion (b1676 (pykF) fusion, 135 minutes): >2X (The designation of “>2X” is given for upregulation)
- upregulation of gene fusion (b1872 (bisZ) fusion, 45 minutes): * (“*” is listed if the expression was less than 2 fold increased)
- upregulation of gene fusion (b1872 (bisZ) fusion, 90 minutes): >2X (The designation of “>2X” is given for upregulation)
- upregulation of gene fusion (b1872 (bisZ) fusion, 135 minutes): >2X (The designation of “>2X” is given for upregulation)
- upregulation of gene fusion (b1993 (cobU) fusion, 45 minutes): >2X (The designation of “>2X” is given for upregulation)
- upregulation of gene fusion (b1993 (cobU) fusion, 90 minutes): >2X (The designation of “>2X” is given for upregulation)
- upregulation of gene fusion (b1993 (cobU) fusion, 135 minutes): >2X (The designation of “>2X” is given for upregulation)
- upregulation of gene fusion (b2081 fusion, 45 minutes): >2X (The designation of “>2X” is given for upregulation)
- upregulation of gene fusion (b2081 fusion, 90 minutes): >2X (The designation of “>2X” is given for upregulation)
- upregulation of gene fusion (b2081 fusion, 135 minutes): * (“*” is listed if the expression was less than 2 fold increased)
- upregulation of gene fusion (b2237 (inaA) fusion, 45 minutes): * (“*” is listed if the expression was less than 2 fold increased)
- upregulation of gene fusion (b2237 (inaA) fusion, 90 minutes): >2X (The designation of “>2X” is given for upregulation)
- upregulation of gene fusion (b2237 (inaA) fusion, 135 minutes): >2X (The designation of “>2X” is given for upregulation)
- upregulation of gene fusion (b2322 fusion, 45 minutes): * (“*” is listed if the expression was less than 2 fold increased)
- upregulation of gene fusion (b2322 fusion, 90 minutes): >2X (The designation of “>2X” is given for upregulation)
- upregulation of gene fusion (b2322 fusion, 135 minutes): >2X (The designation of “>2X” is given for upregulation)
- upregulation of gene fusion (b2367 (emrY) fusion, 45 minutes): * (“*” is listed if the expression was less than 2 fold increased)
- upregulation of gene fusion (b2367 (emrY) fusion, 90 minutes): >2X (The designation of “>2X” is given for upregulation)
- upregulation of gene fusion (b2367 (emrY) fusion, 135 minutes): * (“*” is listed if the expression was less than 2 fold increased)
- upregulation of gene fusion (b2451 fusion, 45 minutes): * (“*” is listed if the expression was less than 2 fold increased)
- upregulation of gene fusion (b2451 fusion, 90 minutes): >2X (The designation of “>2X” is given for upregulation)
